The record followed here is publication PMC9705435, “Thiocarbazate building blocks enable the construction of azapeptides for rapid development of therapeutic candidates” (Nature Communications, 2022).

One series relates to murine monocytes. Description: HMGB1-stimulated TNF release in murine splenic monocytes (ELISA). Type of series: cell-based, mouse. The conditions noted are these: 0.1, 1 or 10 µM peptide, HMGB1 1 µg/ml, 24 h. The text has this: 4.2 HMGB1 protein preparation
For TNF ELISA experiments, […]
In general terms: An ELISA detects its analyte on a solid surface through an enzyme-linked reagent.

Series [1] deals with mouse model of acetaminophen-induced liver toxicity. Description: Acetaminophen (APAP)-induced liver toxicity in mice. Type of series: in vivo. The note with it: vs scrambled peptide; for liver function enzymes and plasma cytokines / pro-inflammatory markers: APAP 200 mg/kg IP, 50 µg/mouse at 2 and 7 hours post-APAP, 24 h; for protection / survival in APAP toxicity model: APAP 400 mg/kg, 50 µg/mouse IP at 2 h post-APAP, then once a day for 5 days.

The conditions of series [2]: mouse whole blood.
The nature of a further series: in vitro. The note with it: male, C57BL/6J, mouse, blood.
Series [3] concerns STZ-induced type 1 diabetic (T1D) mice. Description: Low-dose streptozotocin (STZ)-induced type 1 diabetes in mice. The note with it: 500 µg/mouse/day i.p.
Protocol: Data are presented as means ± SD. […] Mice were simultaneously injected i.p. with saline, FSSE (500 µg/mouse/day), or azaF^1SSazaE^4 (500 µg/mouse/day). Blood glucose was measured on day 0, 7 and 14. Number of mice per group: saline n = 7; FSSE n = 8; azaF^1SSazaE^4 n = 8. Data are presented as mean values ± SEM. […] Serum samples from mice challenged with STZ were collected at day 14 and analyzed by ELISA. n = 7 mice per group. Data are presented as mean values ± SEM. […] Number of islets per group: saline n = 3, 13 islets; FSSE n = 2, 11 islets; azaF^1SSazaE^4 n = 3, 23 islets. P-value was calculated using two-sided Fisher’s exact test to compare islets without (score 0) and with (score 1-4) insulitis. Pancreas tissue was histologically analyzed from 2–3 animals per group. Representative hematoxylin and eosin (H&E) stained images of islets from each group are shown (right panel). Scale bars, 50 μm.
given free access to water and standard rodent chow and were acclimated to their environment for at least 1 week before experimentation.
4.5 STZ-induced type 1 diabetes in mice
Induction of Diabetes T1D was induced by administration of streptozotocin (STZ) (Sigma-Aldrich) (50 mg/kg dissolved in sodium citrate buffer, pH 4.5) to 6-8 weeks old C57Bl/6J mice intraperitoneally (i.p.) once each day for 5 consecutive days.
Mice were given water supplemented with 10% sucrose (Sigma-Aldrich) for six days to prevent sudden hypoglycemia during streptozotocin administration.
of FSSE, azaF1SSazaE4 or saline. Blood glucose with either FreeStyle Lite blood glucose meter (Abbot Diabetes Care, Inc.) or Bayer Contour blood glucose meter (Bayer HealthCare, LLC.) and body weight were measured once weekly. At the end of each study, mice were euthanized by CO2 asphyxiation. Blood and pancreas were collected for further analysis.
Pancreas were fixed in 10% formalin and processed for paraffin embedding (AML Laboratory and Genecopoeia). 7-μm-thick sections were stained with hematoxylin/eosin (Genecopoeia) and the degree of insulitis was eva luated microscopically. Islets were analyzed in multiple sections at 20×.
Another series relates to rats. Nature of the series: Acute blood pressure monitoring (mean arterial pressure) in anesthetized rats. Type of series: in vivo, rat. The conditions noted are these: Icatibant 10 µg/kg IV-bolus 15 min before azaF^8-BK.

By half-life is commonly meant the time in which the quantity being followed falls by half. A low value points to fast loss.

“Also recorded” adds a separate entry of the source. Where only a bound is given, the exact number is not on record here.

Protocol for rats: Each grey data point represents one animal. Mean values (with SEM where indicated) for animals given experimental agent were compared with vehicle.
Next, in vivo bioactivity of aza-BK analogues was evaluated in an acute blood pressure monitoring study in rats[61] based on the known blood pressure lowering effect of BK. Briefly, rats were anesthetized and changes in mean arterial blood pressure (MAP) were recorded during intravenous (IV) injection of test agents (6.4 µg/kg) (Fig. 4b).
Statistical analysis. […] Data are presented as means ± SEM unless otherwise stated. Differences between treatment groups were determined by 2-tailed Unpaired t-test; p value less than 0.05 was considered statistically significant. […] P values less than 0.05 were considered statistically significant.
5.2 Surgical procedure and physiological blood pressure measurement
Adult male Sprague Dawley rats (n = 22, weight: 300 – 350 gm; age: 8 – 10 weeks) from Charles River Labs were used under the approval of Institutional Animal Care and Use Committee at The Feinstein Institutes for Medical Research
Rats were anesthetized using isoflurane at 1-3 %. Body temperature was maintained at 37°C using a heating pad. […] All physiological signals were registered using PowerLab, BioAmp and BridgeAmp (ADInstruments, CO, USA), which were recorded on a computer using LabChart v8 software (ADInstruments, CO, USA). […]

Take `NC(=O)N(CCC(=O)O)NC(=O)[C@H](CO)NC(=O)[C@H](CO)NC(=O)N(N)Cc1ccccc1` [Compound 51, azaF^1SSazaE^4-NH2]: the “HMGB1-induced TNF production” value in the series on murine monocytes is “dose-dependently reduced”. In addition, in series [1], the “liver function enzymes and plasma cytokines / pro-inflammatory markers” value is “improved liver function enzymes as well as plasma cytokines”; the “protection / survival in APAP toxicity model” value is on record as “protective”. In addition, in series [1] (listed as azaF1SSazaE4), the “liver function enzymes and plasma cytokines / pro-inflammatory markers” value was “reduced APAP-induced pro-inflammatory markers and serum liver enzymes”; the “protection / survival in APAP toxicity model” value is “improves survival”. The “longer half-life than native FSSE peptide” value in series [2] is on record as over 60 fold. For the same compound, the half-life in the series “in vitro” was over 120 min. Moreover, in series [3], the “diabetes-induced body weight loss” value is recorded as “hindered diabetes-induced body weight loss”. Also, the “severity of insulitis (insulitis scores)” value in series [3] (2 weeks of treatment, H&E) is “much lower than that of FSSE-treated mice; also recorded: reduced”. Further, the “level of blood glucose” value in series [3] (day 7 and 14) is “significantly attenuated”. Further, the “serum levels of insulin” value in series [3] (day 14, ELISA) was “successfully restored”. For the same compound, the development of hyperglycemia entry in series [3] (vs diabetic (saline) group) was “delayed the development of hyperglycemia”.

Take icatibant: in the series with rats, the “effect of pretreatment on azaF^8-BK (68)-induced lowering of blood pressure” value is “partial inhibition”.
